Results reported in patent US20260274892A1, “MACROCYCLIC BROAD SPECTRUM ANTIBIOTICS” (RQx Pharmaceuticals, Inc., priority 2017, published 2026).

System: Escherichia coli ATCC 25922
Assay: Minimum inhibitory concentration (MIC), CLSI broth micro-dilution, E. coli
Assay type: cell-based
Conditions: Escherichia coli
How it was run: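 Antibacterial potency is measured as MIC by the CLSI broth dilution method. Bacteria at OD600 0.0005 in Tween-80-supplemented cation-adjusted Mueller Hinton broth face ten twofold compound dilutions for 22 h at 35° C.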

[1] = ATCC25922, 22 h, Table 7, cation adjusted Mueller Hinton Broth + 0.002% Tween-80, 35° C.
[2] = ATCC25922, Table 6, cation adjusted Mueller Hinton Broth + 0.002% Tween-80, 35° C., 22 hours
[3] = ATCC25922, 22 h, Table 6, cation adjusted Mueller Hinton Broth + 0.002% Tween-80, 35° C.

| SMILES | MIC [1] | MIC [3] | further results |
| --- | --- | --- | --- |
| Cc1nc(-c2ccc(OC3CCCCC3)cc2)nc(C)c1C(=O)N[C@@H](CCNS(N)(=O)=O)C(=O)N(C)[C@@H]1C(=O)N[C@@H](C)C(=O)N[C@H](C(=O)NCC#N)Cc2ccc(O)c(c2)-c2cc1ccc2OCCN (racemic) [Compound 615, rac-(8S,11S,14S)-18-(2-aminoethoxy)-N-(cyanomethyl)-3-hydroxy-11-methyl-14-[methyl-[rac-(2S)-2-[[2-[4-(cyclohexoxy)phenyl]-4,6-dimethyl-pyrimidine-5-carbonyl]amino]-4-(sulfamoylamino)butanoyl]amino]-10,13-dioxo-9,12-diazatricyclo[13.3.1.12,6]icosa-1(18),2(20),3,5,15(19),16-hexaene-8-carboxamide] | 1 µM | – | – |
| Cc1nc(-c2ccc(C(C)(C)C)cc2)ncc1C(=O)N[C@@H](CCNCC(N)=O)C(=O)N(C)[C@@H]1C(=O)N[C@@H](C)C(=O)N[C@H](C(=O)NCC#N)Cc2ccc(OCCN)c(c2)-c2cc1ccc2OCCN (racemic) [Compound 493, rac-(8S,11S,14S)-3,18-bis(2-aminoethoxy)-N-(cyanomethyl)-11-methyl-14-[methyl-[rac-(2S)-4-[(2-amino-2-oxo-ethyl)amino]-2-[[2-(4-tert-butylphenyl)-4-methyl-pyrimidine-5-carbonyl]amino]butanoyl]amino]-10,13-dioxo-9,12-diazatricyclo[13.3.1.12,6]icosa-1(18),2(20),3,5,15(19),16-hexaene-8-carboxamide] | – | – | MIC [2]: 1 µM |
| CCC1(Oc2ccc(-c3nc(C)c(C(=O)N[C@@H](CCN)C(=O)N(C)[C@@H]4C(=O)N[C@@H](C)C(=O)N[C@H](C(=O)NCC#N)Cc5ccc(OCCN)c(c5)-c5cc4ccc5OCCN)c(C)n3)cc2)CC1 (racemic) [Compound 345, rac-(8S,11S,14S)-3,18-bis(2-aminoethoxy)-N-(cyanomethyl)-11-methyl-14-[methyl-[rac-(2S)-4-amino-2-[[2-[4-(1-ethylcyclopropoxy)phenyl]-4,6-dimethyl-pyrimidine-5-carbonyl]amino]butanoyl]amino]-10,13-dioxo-9,12-diazatricyclo[13.3.1.12,6]icosa-1(18),2(20),3,5,15(19),16-hexaene-8-carboxamide] | – | – | MIC [2]: 0.25 µM |
| Cc1nc(-c2ccc(OC3CCCCC3)cc2)nc(C)c1C(=O)N[C@@H](CNS(N)(=O)=O)C(=O)N(C)[C@@H]1C(=O)N[C@@H](C)C(=O)N[C@H](C(=O)NCC#N)Cc2ccc(OCCN)c(c2)-c2cc1ccc2O (racemic) [Compound 616, rac-(8S,11S,14S)-3-(2-aminoethoxy)-N-(cyanomethyl)-18-hydroxy-11-methyl-14-[methyl-[rac-(2S)-2-[[2-[4-(cyclohexoxy)phenyl]-4,6-dimethyl-pyrimidine-5-carbonyl]amino]-3-(sulfamoylamino)propanoyl]amino]-10,13-dioxo-9,12-diazatricyclo[13.3.1.12,6]icosa-1(18),2(20),3,5,15(19),16-hexaene-8-carboxamide] | 0.5 µM | – | – |
| Cc1nc(-c2ccc(OC3CCCCC3)cc2)cc(N)c1C(=O)N[C@@H](CCN)C(=O)N(C)[C@@H]1C(=O)N[C@@H](C)C(=O)N[C@H](C(=O)NCC#N)Cc2ccc(OCCN)c(c2)-c2cc1ccc2OCCN (racemic) [Compound 544, rac-(8S,11S,14S)-3,18-bis(2-aminoethoxy)-N-(cyanomethyl)-11-methyl-14-[methyl-[rac-(2S)-4-amino-2-[[4-amino-6-[4-(cyclohexoxy)phenyl]-2-methyl-pyridine-3-carbonyl]amino]butanoyl]amino]-10,13-dioxo-9,12-diazatricyclo[13.3.1.12,6]icosa-1(18),2(20),3,5,15(19),16-hexaene-8-carboxamide] | – | 0.13 µM | – |
| Cc1nc(-c2ccc(OC(C)C)cc2)nc(C)c1C(=O)N[C@@H](CCN)C(=O)N(C)[C@@H]1C(=O)N[C@@H](C)C(=O)N[C@H](C(=O)NCC#N)Cc2ccc(OC[C@H](O)CN)c(c2)-c2cc1ccc2OC[C@H](O)CN (racemic) [Compound 569, rac-(8S,11S,14S)-N-(cyanomethyl)-11-methyl-14-[methyl-[rac-(2S)-4-amino-2-[[2-(4-isopropoxyphenyl)-4,6-dimethyl-pyrimidine-5-carbonyl]amino]butanoyl]amino]-10,13-dioxo-3,18-bis[rac-(2R)-3-amino-2-hydroxy-propoxy]-9,12-diazatricyclo[13.3.1.12,6]icosa-1(18),2(20),3,5,15(19),16-hexaene-8-carboxamide] | – | – | MIC (ATCC25922, Table 7, cation adjusted Mueller Hinton Broth + 0.002% Tween-80, 35° C., 22 hours): 0.5 µM |

The next lines start with results.

| MIC [1] | MIC [3] | SMILES | further results |
| --- | --- | --- | --- |
| 1.5 µM | – | COc1c(OC[C@H](O)CN)cc2cc1-c1cc(cc(OC[C@H](O)CN)c1OC)[C@H](N(C)C(=O)[C@H](CNS(N)(=O)=O)NC(=O)c1c(C)nc(-c3ccc(C(C)(C)C)cc3)nc1C)C(=O)N[C@@H](C)C(=O)N[C@H](C(=O)NCC#N)C2 (racemic) [Compound 593, rac-(8S,11S,14S)-N-(cyanomethyl)-3,18-dimethoxy-11-methyl-14-[methyl-[rac-(2S)-2-[[2-(4-tert-butylphenyl)-4,6-dimethyl-pyrimidine-5-carbonyl]amino]-3-(sulfamoylamino)propanoyl]amino]-10,13-dioxo-4,17-bis[rac-(2R)-3-amino-2-hydroxy-propoxy]-9,12-diazatricyclo[13.3.1.12,6]icosa-1(18),2(20),3,5,15(19),16-hexaene-8-carboxamide] | – |
| 0.063 µM | – | Cc1nc(-c2ccc(C(C)(C)C)cc2)nc(C)c1C(=O)N[C@@H](CCN)C(=O)N(C)[C@@H]1C(=O)N[C@@H](C)C(=O)N[C@H](C(=O)NCC#N)Cc2ccc(O)c(c2)-c2cc1ccc2OCCNCCCN (racemic) [Compound 602, rac-(8S,11S,14S)-18-[2-(3-aminopropylamino)ethoxy]-N-(cyanomethyl)-3-hydroxy-11-methyl-14-[methyl-[rac-(2S)-4-amino-2-[[2-(4-tert-butylphenyl)-4,6-dimethyl-pyrimidine-5-carbonyl]amino]butanoyl]amino]-10,13-dioxo-9,12-diazatricyclo[13.3.1.12,6]icosa-1(18),2(20),3,5,15(19),16-hexaene-8-carboxamide] | – |
| – | 1.5 µM | CC(=O)Nc1cc(C(=O)N[C@@H](CCN)C(=O)N(C)[C@@H]2C(=O)N[C@@H](C)C(=O)N[C@H](C(=O)NCC#N)Cc3ccc(OCCN)c(c3)-c3cc2ccc3OCCN)c(C)nc1-c1ccc(C(C)(C)C)cc1 (racemic) [Compound 533, rac-(8S,11S,14S)-3,18-bis(2-aminoethoxy)-N-(cyanomethyl)-11-methyl-14-[methyl-[rac-(2S)-2-[[5-acetamido-6-(4-tert-butylphenyl)-2-methyl-pyridine-3-carbonyl]amino]-4-amino-butanoyl]amino]-10,13-dioxo-9,12-diazatricyclo[13.3.1.12,6]icosa-1(18),2(20),3,5,15(19),16-hexaene-8-carboxamide] | – |
| – | 1.5 µM | Cc1nc(-c2cnc(C(C)(C)C)nc2)nc(C)c1C(=O)N[C@@H](CCN)C(=O)N(C)[C@@H]1C(=O)N[C@@H](C)C(=O)N[C@H](C(=O)NCC#N)Cc2ccc(OCCN)c(c2)-c2cc1ccc2OCCN (racemic) [Compound 540, rac-(8S,11S,14S)-3,18-bis(2-aminoethoxy)-N-(cyanomethyl)-11-methyl-14-[methyl-[rac-(2S)-4-amino-2-[[2-(2-tert-butylpyrimidin-5-yl)-4,6-dimethyl-pyrimidine-5-carbonyl]amino]butanoyl]amino]-10,13-dioxo-9,12-diazatricyclo[13.3.1.12,6]icosa-1(18),2(20),3,5,15(19),16-hexaene-8-carboxamide] | – |
| – | 0.13 µM | Cc1nc(-c2ccc(OC3CCCCC3)cc2)nc(C)c1C(=O)N[C@@H](CCN)C(=O)N(C)[C@@H]1C(=O)N[C@@H](C)C(=O)N[C@H](C(=O)NCC#N)Cc2ccc(OCCN)c(c2)-c2cc1ccc2O (racemic) [Compound 522, rac-(8S,11S,14S)-3-(2-aminoethoxy)-N-(cyanomethyl)-18-hydroxy-11-methyl-14-[methyl-[rac-(2S)-4-amino-2-[[2-[4-(cyclohexoxy)phenyl]-4,6-dimethyl-pyrimidine-5-carbonyl]amino]butanoyl]amino]-10,13-dioxo-9,12-diazatricyclo[13.3.1.12,6]icosa-1(18),2(20),3,5,15(19),16-hexaene-8-carboxamide] | – |
| 0.047 µM | – | Cc1nc(-c2ccc(C(C)(C)C)cc2)nc(C)c1C(=O)N[C@@H](CCN)C(=O)N(C)[C@@H]1C(=O)N[C@@H](C)C(=O)N[C@H](C(=O)NCC#N)Cc2ccc(O)c(c2)-c2cc1cc(OCCN)c2OCCN [Compound 633, (8S,11S,14S)-14-[[(2S)-4-amino-2-[[2-(4-tert-butylphenyl)-4,6-dimethyl-pyrimidine-5-carbonyl]amino]butanoyl]-methyl-amino]-17,18-bis(2-aminoethoxy)-N-(cyanomethyl)-3-hydroxy-11-methyl-10,13-dioxo-9,12-diazatricyclo[13.3.1.12,6]icosa-1(18),2(20),3,5,15(19),16-hexaene-8-carboxamide] | – |
| – | 0.13 µM | Cc1nc(-c2ccc(C3CCCCC3)cc2)nc(C)c1C(=O)N[C@@H](CCN)C(=O)N(C)[C@@H]1C(=O)N[C@@H](C)C(=O)N[C@H](C(=O)NCC#N)Cc2ccc(OCCN)c(c2)-c2cc1ccc2OCCN (racemic) [Compound 304, rac-(8S,11S,14S)-3,18-bis(2-aminoethoxy)-N-(cyanomethyl)-11-methyl-14-[methyl-[rac-(2S)-4-amino-2-[[2-(4-cyclohexylphenyl)-4,6-dimethyl-pyrimidine-5-carbonyl]amino]butanoyl]amino]-10,13-dioxo-9,12-diazatricyclo[13.3.1.12,6]icosa-1(18),2(20),3,5,15(19),16-hexaene-8-carboxamide] | – |
